Source: PMC11623267, “Inhibitors of malaria parasite cyclic nucleotide phosphodiesterases block asexual blood-stage development and mosquito transmission” (Science Advances, 2024)
Read-outs that look alike come from different tables or passages of the source.

How the values were obtained:
[1] = test system: P. falciparum stage V gametocytes (female gamete formation); experiment: Female gamete formation inhibition assay; format: cell-based, Plasmodium falciparum; conditions: 2 μM, 48 hours
Method: Mature gametocytes (>95% stage V) were treated with compounds (2 μM) for 48 hours before stimulating female gamete formation. To evaluate compound dose response, gametocytes were treated similarly at set concentrations representing a fourfold serial dilution. Female gamete activation was induced by both a temperature drop and the addition of 100 μM XA. Monoclonal anti-Pfs25 antibody (BEI Resources, catalog number MRA-28; 1:1000 dilution) conjugated to fluorescein isothiocyanate was used to detect female gametes. Image acquisition was performed using a Zeiss Axio Lab.A1 epifluorescence microscope with a 100/1.4 numerical aperture oil immersion objective and a Zeiss Axiocam 202 mono digital camera. Using a 100× objective, 30 images were taken per sample and analyzed manually. The number, size, roundness, and intensity of fluorescence of activated female gametocytes were evaluated. Compound IC50 values were determined with nonlinear curve fitting (GraphPad Prism 6), normalized to maximum and minimum inhibition.

[2] = test system: P. falciparum stage V gametocytes (male gamete formation); experiment: Exflagellation (male gamete formation) inhibition assay; format: cell-based, Plasmodium falciparum; conditions: 2 μM, 48 hours
Method: The exflagellation inhibition assay was performed by capturing movement of exflagellation centers over time by video microscopy [adapted from a reported protocol ([52])]. For this carry-over format, mature stage V gametocytes were treated with 2 μM of each compound for 48 hours before induction of exflagellation in the presence of compound. To evaluate compound dose response, gametocytes were treated similarly at a set of concentrations representing a fourfold serial dilution. Mature gametocyte cultures (>95% stage V; 500 μl) were centrifuged at 3500 rpm for 30 s, and the pellet was resuspended in 30 μl of ookinete medium [RPMI 1640 medium containing L-glutamine (Sigma-Aldrich, R6504), gentamycin (0.024 mg/ml; HyClone, SV30080.01), 202 μM hypoxanthine (Sigma-Aldrich, H9636), 25 mM Hepes (Sigma-Aldrich, H4034), 0.2% glucose (Sigma-Aldrich, G6152), and 0.5% (w/v) AlbuMAX II (Invitrogen, Paisley, UK), supplemented with 100 μM XA and 20% human serum]. The activated culture (10 μl) was introduced into a Neubauer chamber and placed on the microscope platform to settle homogenously. Time was noted as time zero (T0), and the chamber was incubated at room temperature. Movement was recorded by video microscopy using a Carl Zeiss NT 6V/10W Stab microscope, fitted with a MicroCapture camera at 10× magnification, and then quantified by a semiautomated method, a modification of the method described previously ([53]). A series of 15 videos of 8 to 10 s each were captured at random locations between 15 and 22.5 min after incubation. Each video was analyzed using Icy bioimage analysis software to quantify the number of exflagellating centers. Compound IC50 values were determined with nonlinear curve fitting (GraphPad Prism 6), normalized to maximum and minimum inhibition.

human PDE5A1 = molecular target: T1, human PDE5A1 (Homo sapiens, UniProt O76074); experiment: Human PDE5 selectivity SPA; format: biochemical; conditions: IC50 PDE5A1 / IC50 PDEβ schizont lysates
T1 construct: GST (glutathione S-transferase); purchased BPS Bioscience BPS-60050
Method: (§1) The selectivity of the compounds on the parasite PDEs over the two human isoforms PDE5A1 and PDE6C was measured through a dose-response assay of their hydrolytic activity in presence of the compounds. Similarly to the parasite lysates, an SPA was carried out with the recombinant purified human glutathione S-transferase–tagged PDE5A1 or PDE6C (BPS Bioscience, BPS-60050 and BPS-60062) prepared in PDE assay buffer [10 mM tris-HCl (pH 7.4), 10 mM MgCl2, bovine serum albumin (0.1 mg/ml), and 0.05% Tween 20] at a concentration of 648 pg of enzyme per 50 μl of total volume per well. To determine the IC50 of the compounds, threefold serial dilutions in duplicate were performed. Briefly, the assays were carried out in flexible 96-well plates (PerkinElmer, 1450-401) by incubating the enzyme with the compounds and 5 μl of 200 nM cGMP dilution [[^3H]-cNMP tracer (PerkinElmer, cGMP-NET337250UC) in PDE assay buffer] to a total volume of 50 μl for 45 min at 37°C. The reactions were terminated by addition of 25 μl of PDE SPA beads (PerkinElmer, RPNQ0150), and after 20 min of incubation at room temperature, scintillation was measured using a Wallac 1450 Microbeta Counter (PerkinElmer) for 30 s. […] The selectivity of the compounds was expressed as the fold change in the IC50 obtained for PDE5A1 or PDE6C and the IC50 for the P. falciparum PDEβ schizont lysates.

[3] = test system: P. falciparum stage IV/V gametocytes; experiment: LDH-based gametocyte viability assay; format: cell-based, Plasmodium falciparum; conditions: stage IV to V gametocytes
Method: The pLDH assay was performed on late (>95% stage IV/V) gametocytes. Compound dilutions were placed in triplicate in 96-well plates in a final volume of 100 μl per well. DHA and MMV048 were used as positive drug controls. The gametocyte cultures (100 μl per well) were added to the 96-well plates to achieve a final gametocytemia and hematocrit of 2 and 1%, respectively, in a total incubation volume of 200 μl. Plates were incubated at 37°C for 72 hours, followed by the replacement of spent medium with drug-free culture medium (75% medium change) ([54], [55]). Plates were then incubated for a further 72 hours before assessing viability by measuring pLDH activity. Gametocyte viability was determined spectrophotometrically by measuring the activity of pLDH, according to a modified version of a published protocol ([56]). Briefly, 100 μl of Malstat reagent [0.21% (v/v) Triton X-100, 222 mM L-(+)-lactic acid, 54.5 mM tris, 0.166 mM APAD (Sigma-Aldrich, A5251), adjusted to pH 9 with 1 M NaOH] was transferred into a clean 96-well plate. A fixed volume of 20 μl of parasite suspension per well was added to the Malstat plate, followed by the addition of 25 μl of PES/NBT (0.239 mM phenazine ethosulfate and 1.96 mM nitro blue tetrazolium chloride). Absorbance was measured with a Multiskan Ascent 354 multiplate scanner (Thermo LabSystems, Finland) at 620 nm.

human PDE6C = molecular target: T2, human PDE6C (Homo sapiens, UniProt P51160); experiment: Human PDE6 selectivity SPA; format: biochemical; conditions: IC50 PDE6C / IC50 PDEβ schizont lysates
T2 construct: GST (glutathione S-transferase); purchased BPS Bioscience BPS-60062
T2 sequence (P51160 whole entry): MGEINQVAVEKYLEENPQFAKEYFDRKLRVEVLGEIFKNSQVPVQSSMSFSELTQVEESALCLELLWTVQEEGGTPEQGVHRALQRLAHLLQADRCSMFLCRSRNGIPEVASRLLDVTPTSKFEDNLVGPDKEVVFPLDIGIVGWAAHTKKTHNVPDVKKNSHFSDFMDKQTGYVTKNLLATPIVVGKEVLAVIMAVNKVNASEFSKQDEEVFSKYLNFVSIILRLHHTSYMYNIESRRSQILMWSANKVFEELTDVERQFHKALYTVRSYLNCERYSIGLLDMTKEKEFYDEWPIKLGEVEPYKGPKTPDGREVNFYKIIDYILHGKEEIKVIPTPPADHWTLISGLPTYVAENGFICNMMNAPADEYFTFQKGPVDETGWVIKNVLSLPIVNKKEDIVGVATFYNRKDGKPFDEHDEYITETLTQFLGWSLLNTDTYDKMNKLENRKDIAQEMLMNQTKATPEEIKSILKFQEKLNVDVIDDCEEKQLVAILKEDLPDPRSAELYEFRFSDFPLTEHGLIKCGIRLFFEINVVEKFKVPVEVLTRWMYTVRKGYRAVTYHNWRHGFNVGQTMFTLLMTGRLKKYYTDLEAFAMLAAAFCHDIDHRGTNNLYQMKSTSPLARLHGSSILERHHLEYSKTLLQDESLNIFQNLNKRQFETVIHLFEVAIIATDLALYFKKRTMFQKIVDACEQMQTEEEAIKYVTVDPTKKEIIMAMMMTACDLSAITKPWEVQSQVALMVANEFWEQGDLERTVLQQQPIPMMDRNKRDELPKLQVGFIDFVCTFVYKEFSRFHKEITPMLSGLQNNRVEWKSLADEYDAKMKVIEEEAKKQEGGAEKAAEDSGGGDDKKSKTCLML
Method: as §1

[4] = test system: P. falciparum clinical isolates from Tororo and Busia Districts of Uganda; experiment: Ex vivo 72-hour SYBR Green assay, Ugandan clinical isolates; format: cell-based, Plasmodium falciparum; conditions: 47 Ugandan isolates
Text: Clinical isolates were from the Tororo District of Uganda, located in the central-eastern part of the county near the Kenya border. Tororo and surrounding areas have high-intensity, year-round malaria transmission. […] Patients reporting use of antimalarial treatment within the previous 30 days or with evidence of an infection with other Plasmodium species were excluded. Informed consent was obtained from patients and/or primary care givers (depending on age); children aged 8 to 17 years provided assent. Two to 5 ml of blood was collected by venipuncture in a heparin tube. Samples were delivered to the adjacent IDRC laboratory at Tororo District Hospital or transported by car from Masafu Hospital on the day of collections for storage of blood spots on filter paper (for isolation of nucleic acids) and initiation of ex vivo culture of malaria parasites. Treatment involved a standard therapeutic regimen for uncomplicated falciparum malaria, which was a 3-day course of the artemisinin-based combination therapy (ACT), artemether-lumefantrine. In Uganda, at the time of sampling, there was widespread resistance to the antifolate drugs due to mutant pfdhfr/pfdhps alleles. […] Chloroquine was prepared at 10 mM in water. Stock solutions were stored at −20°C. Working solutions were freshly prepared from a single aliquot within 4 hours of the susceptibility test and stored at 4°C.
(§2) Samples were delivered to the adjacent IDRC laboratory at Tororo District Hospital or transported by car from Masafu Hospital on the day of collection for storage of blood spots on filter paper (for isolation of nucleic acids) and initiation of ex vivo culture of malaria parasites. […] Before assay, 10 mM antimalarial stock compounds were diluted as necessary in DMSO and stored at −20°C. […] Compounds were serially diluted threefold in a 96-well assay plate in complete medium to a final volume of 50 μl, in columns 1 to 10, with concentrations optimized to capture full dose-response curves. Column 11 contained compound-free controls, while column 12 contained uninfected human RBC controls. Parasite culture (150 μl) was added to columns 1 to 11 of the assay plate with a final volume of 200 μl per well, 0.2% parasitemia, and 2% hematocrit. […] Thawed plates were incubated with SYBR Green lysis buffer for 1 hour in the dark as previously reported ([62]). Fluorescence was quantified using a BMG Fluostar Optima plate reader at an excitation of 485 nm and an emission of 530 nm, and data were plotted using GraphPad Prism 7. The data were curve fit with a variable slope function to estimate IC50 values. For each isolate, a Z′ factor to assess assay quality was calculated from positive controls (eight drug-free wells) and negative controls (eight parasite-free, red cell control wells). Z′ values over 0.5 were considered good assays, but each curve was also examined by eye for suitability. Some assays with Z′ below 0.5 may be considered valid depending on factors such as the SE of the curve-fit IC50.

P. falciparum 3D7 = experiment: Ex vivo 72-hour SYBR Green assay, 3D7 control (Uganda); format: cell-based, Plasmodium falciparum; conditions: Ugandan ex vivo assay control; read-out: EC50 lab strain 3D7
Method: as §2

[5] = test system: cGMP-PDE activity in gametocyte lysates (PDEα, PDEδ); experiment: cGMP hydrolysis SPA in stage IV/V gametocyte membrane lysates; format: biochemical, Plasmodium falciparum; conditions: gametocyte lysate; geometric mean ×/÷ geometric SD
Method: cGMP signaling is known to play an essential role in gametogenesis in Plasmodium ([19], [20], [28]). We therefore tested the effects of all newly synthesized analogs for their ability to inhibit cGMP hydrolysis in crude gametocyte membrane preparations. […] S5A. These findings were also consistent with our enzyme-linked immunosorbent assay (ELISA)–based measurement of elevated cGMP levels in gametocytes following incubation with an example of each subseries (Fig. 2A). […] The levels of cAMP detected in gametocytes were similar in dimethyl sulfoxide (DMSO)–, XA-, and inhibitor-treated samples, and we could detect little or no cAMP hydrolysis in mature gametocytes (fig. S5B). […]
The cyclic nucleotide hydrolytic activity of membrane-associated parasite PDE enzymes was measured by a scintillation proximity assay (SPA) ([18]) using lysates of mature P. falciparum schizonts or stage IV/V gametocytes. […] The IC50 values for the compounds were determined using threefold serial dilutions in duplicate. […] The reactions were terminated by addition of 25 μl of PDE SPA beads (PerkinElmer, RPNQ0150), and after 20 min of incubation at room temperature, scintillation was measured using a Wallac 1450 Microbeta Counter (PerkinElmer) for 30 s. […]

P. falciparum Dd2 = experiment: Ex vivo 72-hour SYBR Green assay, Dd2 control (Uganda); format: cell-based, Plasmodium falciparum; conditions: Ugandan ex vivo assay control; read-out: EC50 lab strain Dd2
Method: as §2

HepG2 cells = experiment: HepG2 cytotoxicity; format: cell-based
Text: Table 1. Key activity data for the three main chemical subseries against ABS parasites, parasite fractions, and HepG2 cells. ND, not determined; ×/÷ is the geometric mean with geometric SD. | column: HepG2 EC50 (nM) (selectivity index)

| SMILES | % inhibition of female gamete formation at 2 μM [1] | % inhibition of exflagellation at 2 μM [2] | Selectivity against human PDE5 (human PDE5A1) | % inhibition gametocyte viability at 15 μM [3] | Selectivity against human PDE6 (human PDE6C) | EC50 ([4]; read-out: EC50 clinical isolates, Gmean (geometric mean)) | EC50 ([4]; read-out: EC50 clinical isolates, Median) | EC50 (P. falciparum 3D7) | IC50 [5] | EC50 (P. falciparum Dd2) | EC50 (HepG2 cells) |
| --- | --- | --- | --- | --- | --- | --- | --- | --- | --- | --- | --- |
| CCc1c2nc(-c3cc(-c4ccccc4)cnc3OCC(C)C)[nH]c(=O)c2nn1CCOC [SAL-0010028] | 6.9 ± 2.6% | 18.6 ± 15.8% | 773 fold | 57.1 ± 27.0% | – | – | – | – | – | – | – |
| CCCCOc1ncc(Br)cc1-c1nc2c(CC)n(CCOC)nc2c(=O)[nH]1 [SAL-0010039] | 20.7 ± 2.3% | 0% | – | 0% | 338 fold | – | – | – | – | – | – |
| CCNC(=O)c1cnc(OCC(C)C)c(-c2nc3c(C(C)C)n[nH]c3c(=O)[nH]2)c1 [SAL-0010333] | – | – | – | – | – | 167 nM | 160 nM | 223 nM | 77.2 ± 1.8 nM | 181 nM | > 25000 nM |
